Data as given in paper PMC8769072, “Proteome‐scale mapping of binding sites in the unstructured regions of the human proteome” (Molecular Systems Biology, 2022).

Tested on: immobilized GST-tagged bait protein domains
Assay: ProP-PD phage selections (HD2 P8, sublibraries, HD2 P3, HD1 P8) with NGS and confidence level
Format: binding, human
[1] = bait MAP1LC3B_ATG8 (Q9GZQ8 2-119), HD2 library, benchmark motif instance recovered in the ProP-PD selection (TRUE/FALSE)
[2] = HD2 library, bait SUMO1_SUMO__P63165_1_101, known motif instance of the benchmarking set found (TRUE) or not found (FALSE) among selected peptides
[3] = library HD2, bait Keap1_KELCH__Q14145_321_609, whether the validated benchmark motif instance was recovered in the ProP-PD selection (TRUE/FALSE)
[4] = bait CRK_SH3_1_P46108_124_198, library HD2, benchmarking set of validated motif instances, TRUE = motif instance recovered in the ProP-PD selection
[5] = HD2 library, bait TNKS_TANK-peptide-bind__O95271_174_649, known motif instance of the benchmarking set found (TRUE) or not found (FALSE) among selected peptides
[6] = bait OXSR1___O95747_434_527, HD2 library, confidence level (1-4) of best matching selected peptide
[7] = bait OXSR1___O95747_434_527, HD2 library, specificity score of best matching selected peptide
[8] = bait OXSR1___O95747_434_527, HD2 library, whether the validated benchmark motif instance was recovered in the ProP-PD selection (TRUE/FALSE)
[9] = bait ANKRA2_Ank__Q9H9E1_142_313, library HD
[10] = bait ANKRA2_Ank__Q9H9E1_142_313, library HD, mean normalised NGS counts
[11] = bait ANKRA2_Ank__Q9H9E1_142_313, library HD, mean raw NGS counts, all selections
[12] = library HD2, bait EPS15_EH__P42566_121_215, best matching peptide
[13] = library HD2, bait EPS15_EH__P42566_121_215, confidence level of best matching peptide (4 High, 2-3 Medium, 1 Low)
[14] = library HD2, bait EPS15_EH__P42566_121_215, whether the validated benchmark motif instance was recovered in the ProP-PD selection (TRUE/FALSE)
[15] = library HD2, bait YAP1_WW_1_P46937_169_207, validated benchmark motif instance, in_library_check TRUE, TRUE/FALSE = instance recovered in ProP-PD selection

Substance: SRWEVIANYMNIHSSS
- HD2-1mM_CaCl confidence (bait CALM1 EF-hand (P0DP23, 2-149), HD2 library selection with 1mM_CaCl, confidence level (4 = High, 2 or 3 = Medium, 1 = Low)): 3
- HD2 confidence (bait CALM1 EF-hand (P0DP23, 2-149), HD2 library selection, confidence level (4 = High, 2 or 3 = Medium, 1 = Low)): 3

Substance: SSDGTCVAARTRPVLSCKKRR
- motif_found (library HD2, bait WDR5_WD_1234567_P61964_21_334, validated benchmark motif instance, in_library_check TRUE, TRUE/FALSE = instance recovered in ProP-PD selection): FALSE

Substance: SSGSSEDSFVEIRMAEGEA
- motif_found (bait MAP1LC3A_ATG8 (Q9H492 2-121), HD2 library, benchmark motif instance recovered in the ProP-PD selection (TRUE/FALSE)): FALSE
- motif_found [1]: FALSE

Substance: SSHRKTKKPLPPTPEEDQILK
- motif_found (library HD2, bait YES1_SH3__P07947_90_152, validated benchmark motif instance, in_library_check TRUE, TRUE/FALSE = instance recovered in ProP-PD selection): FALSE

Substance: SSKPNQKKLIVLSDSEVIQLSDG
- motif_found [2]: FALSE

Substance: SSLEEPHSPETGEKVVAGEV
- motif_found [3]: FALSE

Substance: SSNPPTSVPTAPALSSVIAP
- motif_found (HD2 library, bait TSG101_UEV__Q99816_1_145, known motif instance of the benchmarking set found (TRUE) or not found (FALSE) among selected peptides): FALSE

Substance: SSSSASGSYGHLSASAISPALS
- motif_found (bait SUFU_SUFU__Q9UMX1_1_484, HD2 library, whether the validated benchmark motif instance was recovered in the ProP-PD selection (TRUE/FALSE)): FALSE

Substance: STAQEQDDVLIVDSDEEDSSNNADV
- motif_found [2]: FALSE

Substance: STASKGRYIPPHLRNREATKG
- motif_found (library HD2, bait EIF4E_eIF4E__P06730_1_217, whether the validated benchmark motif instance was recovered in the ProP-PD selection (TRUE/FALSE)): FALSE

Substance: SVEFLDLAHSSESQETISS
- motif_found (library HD2, bait USP7_MATH-TRAF__Q93009_53_206, validated benchmark motif instance, in_library_check TRUE, TRUE/FALSE = instance recovered in ProP-PD selection): FALSE

Substance: SVVSPPELPPRNIPLT
- HD confidence (bait CRK_SH3_1_P46108_124_198, library HD): 2
- HD2 confidence (bait CRK_SH3_1_P46108_124_198, library HD2 P8): 4
- HD2_cytoplasm confidence (bait CRK_SH3_1_P46108_124_198, library HD2 P8 cytoplasm): 4
- HD2_nc confidence (bait CRK_SH3_1_P46108_124_198, library HD2 P8 nucleocytoplasmic): 2
- HD2_nc count proportions (bait CRK_SH3_1_P46108_124_198, library HD2 P8 nucleocytoplasmic, mean normalised NGS counts): 6.106e-06
- HD2_nc mean counts (bait CRK_SH3_1_P46108_124_198, library HD2 P8 nucleocytoplasmic, mean raw NGS counts, all selections): 1.0
- HD count proportions (bait CRK_SH3_1_P46108_124_198, library HD, mean normalised NGS counts): 0.0001782
- HD mean counts (bait CRK_SH3_1_P46108_124_198, library HD, mean raw NGS counts, all selections): 3.0

Substance: SWVAFAHTGAWGTGLP
- HD2 confidence (bait AP2B1_adaptin__P63010_700_937, HD2 P8 selection, non primary paralogue peptide match, confidence level -4 to 4: 4 = High, 3 or 2 = Medium, 1 = Low, 0 = Filtered/Noise): 4

Substance: TDEVPVPPPVPPRRRPESAP,DEVPVPPPVPPRRRPESAPA [SOS1]
- motif_found [4]: FALSE

Substance: TDYRPPDDAVFDIITDEELCQ
- motif_found [1]: FALSE

Substance: TFNSYRKEWEELFVNNNYL [TBC1D5 58-62]
- motif_found (HD2 library, bait MAP1LC3A_ATG8__Q9H492_2_121, benchmark motif instance, in_library_check FALSE, in_library_coverage 0): FALSE
- motif_found (HD2 library, bait MAP1LC3B_ATG8__Q9GZQ8_2_119, benchmark motif instance, in_library_check FALSE, in_library_coverage 0): FALSE

Substance: TGQPTKVGRFQVTTTA
- HD2_cytoplasm confidence (bait OXSR1___O95747_434_527, HD2 P8 cytoplasm sublibrary, confidence level (4 = High, 2-3 = Medium, 1 = Low)): 4

Substance: THHNQASDIIVISSEDSEGSTDVDE
- motif_found [2]: FALSE

Substance: TKSTVTGERQSGDGQESTEPVE
- motif_found [5]: FALSE

Substance: TKVGRFQVTTTANKVG
- best_confidence [6]: 4
- best_specificity [7]: 1
- motif_found [8]: TRUE

Substance: TLALPSLVPQNYTENK
- HD confidence [9]: 2
- HD count proportions [10]: 0.0001017
- HD mean counts [11]: 1.75

Substance: TLDDSDEDVILVESQDPPLPS
- motif_found [2]: FALSE

Substance: TLVSPKLPSLEAPTSA
- HD2 confidence (bait ANKRA2_Ank__Q9H9E1_142_313, HD2 P8 selection, confidence level -4 to 4: 4 = High, 3 or 2 = Medium, 1 = Low, 0 = Filtered/Noise): 3

Substance: TNAYKLPLAVGPPSLNYIPPVLQLS,LAVGPPSLNYIPP [TEX14]
- motif_found (bait CEP55_EABR__Q53EZ4_160_217, library HD2, benchmarking set of validated motif instances, TRUE = motif instance recovered in the ProP-PD selection): TRUE

Substance: TNGAMNVEIGNPTYKMYEGGEP
- motif_found (HD2 library, bait TLN1_PTB__Q9Y490_309_401, known motif instance of the benchmarking set found (TRUE) or not found (FALSE) among selected peptides): FALSE

Substance: TNLYWPGTAEPLLVSS
- confidence (library HD, bait AP2B1_adaptin__P63010_700_937, ProP-PD peptides with disease-related mutations): 2

Substance: TNPFLNETLQDVQPSP
- best_specificity [12]: 1
- best_confidence [13]: 4
- motif_found [14]: TRUE

Substance: TNPFQPAPPATLTLNQ
- best_specificity [12]: 1
- best_confidence [13]: 4
- motif_found [14]: TRUE

Substance: TPDSRRVARPPPIGAEVPDVTA
- motif_found [5]: FALSE

Substance: TPGAALSWQAAIDAARQAKLMG [CACNA1C]
- motif_found (bait CALM1_EF-hand__P0DP23_2_149, library HD2, benchmarking set of validated motif instances, TRUE = motif instance recovered in the ProP-PD selection): FALSE

Substance: TPPGAKASNPFLPGGGPAT
- motif_found [14]: FALSE

Substance: TPPPPYTVAPGRPLTA
- best_confidence (library HD2, bait YAP1_WW_1_P46937_169_207, confidence level of best matching selected peptide (4 High, 2-3 Medium, 1 Low)): 4
- best_specificity (library HD2, bait YAP1_WW_1_P46937_169_207, specificity score of best matching selected peptide): 1
- motif_found [15]: TRUE

Substance: TPSYSISSTLNPQAPEFILGCTASKIT
- motif_found (bait PABP-B_PABP__P11940_544_623, HD2 library, whether the validated benchmark motif instance was recovered in the ProP-PD selection (TRUE/FALSE)): FALSE

Substance: TPYTAYPPPAQAYGIP
- HD2_nc confidence (bait CEP55_EABR__Q53EZ4_160_217, HD2 P8 nucleocytoplasmic sublibrary, confidence level (4 = High, 2-3 = Medium, 1 = Low)): 4
- HD2_nc mean counts (bait CEP55_EABR__Q53EZ4_160_217, HD2 P8 nucleocytoplasmic sublibrary, mean NGS counts over replicate selections): 482.0
- HD2_nc count proportions (bait CEP55_EABR__Q53EZ4_160_217, HD2 P8 nucleocytoplasmic sublibrary, mean proportion of NGS counts): 0.008703

Substance: TQRSKPQPAVPPRPSADLIL [NCF1]
- motif_found [4]: FALSE

Substance: TQVPGTPPPKYNTLRLER
- motif_found (bait NEDD4_WW_4_P46934_890_928, HD2 library, whether the validated benchmark motif instance was recovered in the ProP-PD selection (TRUE/FALSE)): FALSE
- motif_found [15]: FALSE

Substance: TRKKTFKEVANAVKISASLMGT
- motif_found (library HD2, bait CALM1_EF-hand__P0DP23_2_149, motif instance NOT in library (in_library_check FALSE, in_library_coverage 0)): FALSE

Substance: TSNNRLLNKRRKKQAGSSSA
- motif_found (bait KPNA4_Arm (O00629 68-487), HD2 library, benchmark motif instance recovered in the ProP-PD selection (TRUE/FALSE)): FALSE

Substance: TTTANKVGRFSVSKTE
- best_confidence [6]: 2
- best_specificity [7]: 1
- motif_found [8]: TRUE

Substance: TVNNCAQDRESPDGSYTEEQSQ
- motif_found [5]: FALSE

Substance: VDLTHNDSVVIVDERRRPRRN
- motif_found [2]: FALSE

Substance: VDPSTGELQSLQMPES
- best_specificity (library HD2, bait Keap1_KELCH__Q14145_321_609, best matching peptide): 1
- best_confidence (library HD2, bait Keap1_KELCH__Q14145_321_609, confidence level of best matching peptide (4 High, 2-3 Medium, 1 Low)): 3
- motif_found [3]: TRUE

Substance: VEEEWVIVSDEEIEEA
- HD2_endomembrane confidence (bait MAP1LC3A_ATG8__Q9H492_2_121, HD2 P8 endomembrane sublibrary, confidence level (4 = High, 2-3 = Medium, 1 = Low)): 4

Substance: VEVIDLTIESSSDEED
- best_confidence (bait SUMO1_SUMO__P63165_1_101, HD2 library, confidence level (1-4) of best matching selected peptide): 4
- best_specificity (bait SUMO1_SUMO__P63165_1_101, HD2 library, specificity score of best matching selected peptide): 1
- motif_found (bait SUMO1_SUMO__P63165_1_101, HD2 library, whether the validated benchmark motif instance was recovered in the ProP-PD selection (TRUE/FALSE)): TRUE

Substance: VFPRPVLPSLTVSRVI
- HD2 confidence (bait ANKRA2_Ank__Q9H9E1_142_313, library HD2 P8): 4
- HD2_nc confidence (bait ANKRA2_Ank__Q9H9E1_142_313, library HD2 P8 nucleocytoplasmic): 3
- HD2_nc count proportions (bait ANKRA2_Ank__Q9H9E1_142_313, library HD2 P8 nucleocytoplasmic, mean normalised NGS counts): 0.003084
- HD2_nc mean counts (bait ANKRA2_Ank__Q9H9E1_142_313, library HD2 P8 nucleocytoplasmic, mean raw NGS counts, all selections): 216.6

Substance: VGDTSRGQVIIISDSDDDDDERILSLEK
- motif_found [2]: FALSE

Substance: VGRFQVTSSKEPAEPL
- best_confidence [6]: 4
- best_specificity [7]: 1
- motif_found [8]: TRUE

Substance: VGSQADTNVIDLTGDDKDDL
- motif_found [2]: FALSE

Substance: VIGSADCNVIEIDDTLDDSDED
- motif_found [2]: FALSE

Substance: VLGDQRRPSLPALHFIKGAGKK
- motif_found (library HD2, bait ANKRA2_Ank__Q9H9E1_142_313, motif instance NOT in library (in_library_check FALSE, in_library_coverage 0)): FALSE

Substance: VMSLPKLQQVPGLHPQ
- HD confidence [9]: 3
- HD count proportions [10]: 0.003008
- HD mean counts [11]: 34.0
